Results on four compounds are retold here after patent publication US20250282799A1, “SUBSTITUTED PYRIDO[4,3-d]PYRIMIDINES AS KRAS MODULATORS” (Alterome Therapeutics, Inc., priority 2023, published 2025).

One assay addresses KRAS (G12V)/CRAF (Homo sapiens (Human), UniProt P01116, G12V). The experiment in a line: TR-FRET biochemical KRAS:CRAF protein:protein interaction assay, KRAS (G12V). Conditions: GMPPNP loaded Biotin-KRAS (G12V), FLAG CRAF RBD; read-out: TR-Fret_PPI KRAS (G12V)/CRAF IC50. It counts as binding. Summed up:
(§1)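 Compound (10-point 3-fold series, 1% DMSO final) preincubated 30 min at room temperature with 20 nM biotin-KRAS mutant loaded with GMPPNP, in Hepes pH7.3 buffer with 5 mM MgCl2 and 10 uM GMP-PNP. Then 100 nM FLAG-CRAF RBD for 150 min, 1 nM Tb-anti-FLAG/5 nM SA-XL665 for 90 min; IC50 from normalized 665/620 ratio, 4-parameter fit.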
On the technique in general: Time-resolved FRET reads energy transfer from a long-lived donor to a nearby acceptor.

For another assay, the target named is KRAS (G12D)/CRAF (Homo sapiens (Human), UniProt P01116, G12D). The experiment in a line: TR-FRET biochemical KRAS:CRAF protein:protein interaction assay, KRAS (G12D). It counts as binding. Conditions: GMPPNP loaded Biotin-KRAS (G12D), FLAG CRAF RBD; read-out: TR-Fret_PPI KRAS (G12D)/CRAF IC50. Summed up: as §1
KRAS (G12D)/CRAF, sequence (P01116-2 other isoform, or with tags, fused parts or gaps G12D): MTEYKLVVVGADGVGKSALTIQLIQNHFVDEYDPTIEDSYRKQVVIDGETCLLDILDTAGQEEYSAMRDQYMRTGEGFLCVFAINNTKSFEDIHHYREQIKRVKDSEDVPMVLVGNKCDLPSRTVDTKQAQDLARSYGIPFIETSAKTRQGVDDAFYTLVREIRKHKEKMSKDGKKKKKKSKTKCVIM

KRAS (G12V)/CRAF, sequence (P01116-2 other isoform, or with tags, fused parts or gaps G12V): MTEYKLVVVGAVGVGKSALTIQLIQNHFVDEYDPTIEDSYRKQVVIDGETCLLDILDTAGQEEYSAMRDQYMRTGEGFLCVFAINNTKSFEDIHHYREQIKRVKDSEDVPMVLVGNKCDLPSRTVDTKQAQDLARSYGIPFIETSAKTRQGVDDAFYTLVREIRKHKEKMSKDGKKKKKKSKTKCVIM

As for `[2H]C([2H])(Oc1nc(N2CCCC[C@H]3[C@H](F)[C@H]32)c2cnc(-c3cc(N)cc4cc(F)c(F)c(C#C)c34)c(F)c2n1)[C@@]12CCCN1C[C@H](F)C2` [Example 16, 5-Ethynyl-6,7-difluoro-4-(8-fluoro-4-((1S,7R,8S)-8-fluoro-2-azabicyclo[5.1.0]octan-2-yl)-2-(((2R,7aS)-2-fluorotetrahydro-1H-pyrrolizin-7a(5H)-yl)methoxy-d2)pyrido[4,3-d]pyrimidin-7-yl)naphthalen-2-amine], the IC50 at KRAS (G12V)/CRAF was found to be 56.7 nM; at KRAS (G12D)/CRAF it was 9.98 nM.
On to `[2H]C([2H])(Oc1nc(N2CCOC[C@H]3[C@H](F)[C@H]32)c2cnc(-c3cc(N)cc4cc(F)c(F)c(C#C)c34)c(F)c2n1)[C@@]12CCCN1C[C@H](F)C2` [Example 28, 5-Ethynyl-6,7-difluoro-4-(8-fluoro-4-((1S,7S,8S)-8-fluoro-5-oxa-2-azabicyclo[5.1.0]octan-2-yl)-2-(((2R,7aS)-2-fluorotetrahydro-1H-pyrrolizin-7a(5H)-yl)methoxy-d2)pyrido[4,3-d]pyrimidin-7-yl)naphthalen-2-amine], for which the IC50 on KRAS (G12V)/CRAF amounted to 89.7 nM; at KRAS (G12D)/CRAF it was 11.6 nM.
For the compound `[2H]C([2H])(Oc1nc(N2CCCC[C@H]3[C@H](F)[C@H]32)c2cnc(-c3cc(N)cc4ccc(F)c(C#C)c34)c(F)c2n1)[C@@]12CCCN1C[C@H](F)C2` [Example 82, 5-Ethynyl-6-fluoro-4-(8-fluoro-4-((1S,7R,8S)-8-fluoro-2-azabicyclo[5.1.0]octan-2-yl)-2-(((2R,7aS)-2-fluorotetrahydro-1H-pyrrolizin-7a(5H)-yl)methoxy-d2)pyrido[4,3-d]pyrimidin-7-yl)naphthalen-2-amine], the IC50 at KRAS (G12V)/CRAF came out at 39.2 nM; at KRAS (G12D)/CRAF it was 8.11 nM.
On the same counts, the results for `[2H]C([2H])(Oc1nc(N2CCOC[C@H]3[C@H](F)[C@H]32)c2cnc(-c3cc(N)cc4ccc(F)c(C#C)c34)c(F)c2n1)[C@@]12CCCN1C[C@H](F)C2` [Example 87, 5-Ethynyl-6-fluoro-4-(8-fluoro-4-((1S,7S,8S)-8-fluoro-5-oxa-2-azabicyclo[5.1.0]octan-2-yl)-2-(((2R,7aS)-2-fluorotetrahydro-1H-pyrrolizin-7a(5H)-yl)methoxy-d2)pyrido[4,3-d]pyrimidin-7-yl)naphthalen-2-amine] are 60 nM and 9.92 nM.
